We go through two molecules from article PMC4801998 (2016).

In assay [1] the test system is G4TERT (DNA, G4) AGGGGAGGGGCTGGGAGGGC
Nature of the assay: fluorescence light-switch, plate reader. The conditions noted are these: 5 mM KCl, 95 mM LiCl; 10 mM lithium cacodylate, pH 7.2, 25 °C; about 0.1 µM PtTMPyP4, DNA:porphyrin 50:1; intensity ratio, not affinity.

The subject of assay [2] is Bcl-2 (DNA, G4) GGGCGCGGGAGGGAATTGGGCGGG
Nature of the assay: fluorescence light-switch, plate reader. To be noted: 5 mM KCl, 95 mM LiCl; 10 mM lithium cacodylate, pH 7.2, 25 °C; about 0.1 µM PtTMPyP4, DNA:porphyrin 50:1; intensity ratio, not affinity.

Assay [3] concerns Tel22 (DNA, G4) AGGGTTAGGGTTAGGGTTAGGG
Nature of the assay: fluorescence light-switch, plate reader. To be noted: 10 mM lithium cacodylate, pH 7.2, 25 °C, about 0.1 µM PtTMPyP4, DNA:porphyrin 50:1, intensity ratio, not affinity.

For assay [4] the test system is unchanged. Nature of the assay: UV-Vis titration, direct fit. To be noted: 5 mM KCl, 95 mM LiCl, 10 mM lithium cacodylate, stoichiometry fixed, equivalent sites.
Assay [5] shares this test system. Nature of the assay: fluorescence titration, direct fit. The conditions noted are these: 5 mM KCl, 95 mM LiCl; 10 mM lithium cacodylate, pH 7.2, 20 °C; 1.7-2.0 µM PtTMPyP4; equivalent sites.
In assay [6] the test system is cMyc (DNA, G4) TGAGGGTGGGTAGGGTGGGTAA
Nature of the assay: fluorescence light-switch, plate reader. The conditions noted are these: 5 mM KCl, 95 mM LiCl; 10 mM lithium cacodylate, pH 7.2, 25 °C; about 0.1 µM PtTMPyP4, DNA:porphyrin 50:1; intensity ratio, not affinity.

For assay [7], the system named is 17B (DNA, single strand) GGGTTACTACGAACTGG
Nature of the assay: fluorescence light-switch, plate reader. To be noted: 5 mM KCl, 95 mM LiCl; 10 mM lithium cacodylate, pH 7.2, 25 °C; about 0.1 µM PtTMPyP4, DNA:porphyrin 50:1; intensity ratio, not affinity.

Assay [8] concerns F21D (DNA, G4) GGGTTAGGGTTAGGGTTAGGG
The assay is described as follows: FRET melting. To be noted: 5 mM KCl, 95 mM LiCl; 10 mM lithium cacodylate, pH 7.2; 0.4 µM ligand, 0.2 µM F21D.

In assay [9] the test system is ds26 (DNA, duplex) CAATCGGATCGAATTCGATCCGATTG
The assay is described as follows: fluorescence light-switch, plate reader. To be noted: 5 mM KCl, 95 mM LiCl; 10 mM lithium cacodylate, pH 7.2, 25 °C; about 0.1 µM PtTMPyP4, DNA:porphyrin 50:1; intensity ratio, not affinity.

In assay [10] the test system is TBA (DNA, G4) GGTTGGTGTGGTTGG
The assay is described as follows: fluorescence light-switch, plate reader. To be noted: 10 mM lithium cacodylate, pH 7.2, 25 °C, about 0.1 µM PtTMPyP4, DNA:porphyrin 50:1, intensity ratio, not affinity.

In assay [11] the test system is G4T4G4 (DNA, G4) GGGGTTTTGGGG
The assay is described as follows: fluorescence light-switch, plate reader. The conditions noted are these: 10 mM lithium cacodylate, pH 7.2, 25 °C, about 0.1 µM PtTMPyP4, DNA:porphyrin 50:1, intensity ratio, not affinity.

Assay [12] deals with 17A (DNA, single strand) CCAGTTCGTAGTAACCC
Nature of the assay: fluorescence light-switch, plate reader. The conditions noted are these: 5 mM KCl, 95 mM LiCl; 10 mM lithium cacodylate, pH 7.2, 25 °C; about 0.1 µM PtTMPyP4, DNA:porphyrin 50:1; intensity ratio, not affinity.

Assay [13] has as its system cKit1 (DNA, G4) GGGAGGGCGCTGGGAGGAGGG
Nature of the assay: fluorescence light-switch, plate reader. To be noted: 5 mM KCl, 95 mM LiCl; 10 mM lithium cacodylate, pH 7.2, 25 °C; about 0.1 µM PtTMPyP4, DNA:porphyrin 50:1; intensity ratio, not affinity.

Assay [14] deals with VEGF (DNA, G4) GGGAGGGTTGGGGTGGG
The assay is described as follows: fluorescence light-switch, plate reader. The conditions noted are these: 5 mM KCl, 95 mM LiCl; 10 mM lithium cacodylate, pH 7.2, 25 °C; about 0.1 µM PtTMPyP4, DNA:porphyrin 50:1; intensity ratio, not affinity.

The test system of assay [15] is 17AB (DNA, duplex) CCAGTTCGTAGTAACCC/GGGTTACTACGAACTGG
The assay is described as follows: fluorescence light-switch, plate reader. The conditions noted are these: 5 mM KCl, 95 mM LiCl; 10 mM lithium cacodylate, pH 7.2, 25 °C; about 0.1 µM PtTMPyP4, DNA:porphyrin 50:1; intensity ratio, not affinity.

Assay [16] relates to 26TelG4 (DNA, G4) AGGGGTTAGGGGTTAGGGGTTAGGGG
The assay is described as follows: fluorescence light-switch, plate reader. To be noted: 10 mM lithium cacodylate, pH 7.2, 25 °C, about 0.1 µM PtTMPyP4, DNA:porphyrin 50:1, intensity ratio, not affinity.

Take `C[n+]1ccc(-c2c3nc(c(-c4cc[n+](C)cc4)c4ccc([n-]4)c(-c4cc[n+](C)cc4)c4nc(c(-c5cc[n+](C)cc5)c5ccc2[n-]5)C=C4)C=C3)cc1.[Pt+2]`: the Fluorescence enhancement in assay [1] worked out at 85.7 ± 0.9; in assay [2], 39.2 ± 5.7; in [3] (5 mM KCl, 95 mM LiCl), 71.8 ± 10; in assay [3] (50 mM NaCl, 50 mM LiCl), 54.2 ± 14.6; in assay [6] it was 28.0 ± 5.0; in assay [7], 43.9 ± 3.0. Also, the Fluorescence enhancement was 39.1 ± 5.2 in assay [9]; 29.5 ± 5.4 in [10] (5 mM KCl, 95 mM LiCl); 32.6 ± 6.8 in assay [10] (50 mM NaCl, 50 mM LiCl); 42.2 ± 9.2 in assay [11] (5 mM KCl, 95 mM LiCl); 40.5 ± 12 in [11] (50 mM NaCl, 50 mM LiCl); 38.1 ± 1.5 in assay [12]. Moreover, the Fluorescence enhancement in assay [13] stood at 28.0 ± 5.6; in assay [14] it was 76.9 ± 3.8; in [15] it was 46.0 ± 0.7; in assay [16] (5 mM KCl, 95 mM LiCl), 65.4 ± 4.8; in assay [16] (50 mM NaCl, 50 mM LiCl), 54.1 ± 15. Besides, the binding affinity result in assay [4] (pH 7.2, 20 °C) is listed as “(5.8 ± 0.8) × 10^6 M^-1”. Further, the binding constant entry in [5] is given as “(1.8 ± 0.3) × 10^6 M^-1”. Further, in [8], the ΔTm (usually the change in melting temperature against a reference sample) turned out to be 30.7 ± 0.6 °C.
In the case of `C[n+]1ccc(-c2c3nc(c(-c4cc[n+](C)cc4)c4ccc([n-]4)c(-c4cc[n+](C)cc4)c4nc(c(-c5cc[n+](C)cc5)c5ccc2[n-]5)C=C4)C=C3)cc1.[Pd+2]`, in assay [4] (pH 7.2), the binding affinity entry is reported as “(1.0 ± 0.3) × 10^7 M^-1”. In addition, the ΔTm in assay [8] turned out to be 30.9 ± 0.4 °C.
